{"source": "patent US9011863B2", "about": "“Combinations of kinase inhibitors for the treatment of cancer” (Exelixis, Inc., priority 2010, dated 2015)", "key": {"[1]": {"system": "human breast cancer cell lines", "assay": "cell proliferation (cell counting) and crystal violet assays", "type": "cell-based", "procedure": "Cells were seeded in 12-well plates at a density of 2.5-3.5×10^4 cells/well in medium containing 2.5% FBS±inhibitors. Media and inhibitors were replaced every 3 days. On the days indicated in figures, cells were trypsinized and counted in a Beckman Coulter counter. For crystal violet assay, 5×10^4 cells/well were seeded in 6-well plates and grown in absence or presence of compound A for 6 days, fixed in methanol, stained with crystal violet, and photographed using an Olympus DP10 camera.\n(§1) A panel of breast cancer cell lines with dysregulated PI3K activity was treated with increasing doses of compound A under two- and three-dimensional (2D and 3D) growth conditions. All experiments were conducted in 2.5% FBS-containing media, unless otherwise stated. […] This was further confirmed by immunoblot analysis of biomarkers of cell death and G1-S cell cycle transition in lysates from cells treated for 24 hours with compound A as shown in FIG. 10B."}, "[2]": {"system": "pAKT, pS6, HER3, pHER3, HER2 in human breast cancer cell lines", "assay": "immunoblotting of PI3K/AKT pathway markers", "type": "cell-based", "procedure": "Immunoprecipitation, immunoblotting, and RTK assays were performed according to published methods. Primary antibodies included AKT, pAKT^S473, pAKT^T308, ERK, pERK^T202/Y204, pHER2^Y1248, pHER3^Y1197, pHER3^Y1222, pHER3^Y1289, S6, pS6^S240/244, p27, pRb^S780, FoxO1, FoxO3a, MEK1/2 (Cell Signaling Technology, Danvers, Mass., USA), p85, 4G10 pTyr (Millipore, Billerica, Mass., USA), HER3, CyclinD1, RhoA, HDAC3 (Santa Cruz Biotechnology, Santa Cruz, Calif., USA), PARP (BD Transduction Laboratories), β-actin (Sigma, St. Louis, Mo., USA), and HER2 (Neomarkers, division of Thermo Scientific, Freemenot, Calif., USA). Species-specific horseradish peroxidase-conjugated secondary antibodies were from Promega (Madison Wis., USA). Immunoreactive signals were detected by enhanced chemilluminsecence (Pierce, Rockford, Ill., USA). Phospho-RTK arrays were from R&D Systems (Minneapolis, Minn., USA) total cell lysates were used to hybridize with the arrays according to the manufacturer's instructions.\nas §1\nExperiments were performed to examine the effect of compound A on a more comprehensive panel of molecules in the PI3K and TOR signaling pathways.\nAlthough pHER3 is known to activate the extracellular signal regulated kinase (ERK/MAPK) via its interaction through the adaptor protein Shc, recovery of pERK upon feedback reactivation of HER3 was not detected consistently as shown in FIG. 13A."}, "HER3 mRNA": {"system": "HER3 mRNA", "assay": "real-time qPCR of HER3 mRNA", "type": "cell-based, human", "conditions": "BT474, SKBR3, MDA453 cells; 6 μM; time course up to 48 hours", "procedure": "FIG. 12B depicts a bar chart of timed HER3 mRNA transcription in BT474 cells which were treated with 2 μM 5J8, 20 μM LY294002, and 50 nM rapamycin for 10 hours prior to RNA isolation and qPCR analysis with HER3-specific primers."}, "HER3 protein": {"system": "HER3 protein", "assay": "half-life of the HER3 protein with cycloheximide", "type": "cell-based, human", "conditions": "BT474 cells", "procedure": "The half-life of the HER3 protein in absence and presence of compound A was determined using cycloheximide, an inhibitor of protein synthesis. […] Next the levels of HER3 mRNA was examined by qPCR upon inhibition of PI3K over a time course using the approximate IC50 of compound A (6 μM)."}, "[3]": {"system": "p85-associated pTyr proteins in BT474 cells", "assay": "p85 immunoprecipitation with pTyr / HER3 immunoblot", "type": "cell-based, human", "conditions": "BT474, 0-20 μM, 24 hours", "procedure": "FIG. 13C depicts a photomicrrograph of immunoblots of cell lysates from BT474 cells which were treated with 0-20 μM compound A for 24 hours. Cells were then lysed, and 0.5 mg of lysate subjected to immunoprecipitation (IP) with a p85 antibody followed by p85 and pTyr.\nFIG. 13D depicts a photomicrrograph of immunoblots of cell lysates from BT474 cells which were treated with 0-20 μM compound A for 24 hours. Cells were then lysed, and 0.5 mg of lysate subjected to immunoprecipitation (IP) with a p85 antibody followed by p85 and HER3.\nImmunoprecipitation, immunoblotting, and RTK assays were performed according to published methods. […] Immunoreactive signals were detected by enhanced chemilluminsecence (Pierce, Rockford, Ill., USA). […]\nIn HER2 overexpressing cells, although not bound by any particular theory, it is believed that the main mechanism of activation of PI3K is the coupling of pHER3 to an SH2 domain in the N-terminus of p85, the regulatory subunit of PI3K. […] Consistent with previous studies, the p85-associated approximately 200-kDa band was also detected with HER3 and pHER3^Y1197 antibodies as shown in FIGS. 13D and 13F. […]"}, "[4]": {"conditions": "concentrations below 20 μM, 24 hours"}}}
{"smiles": "COc1ccc(Cl)c(Nc2nc3ccccc3nc2NS(=O)(=O)c2cccc(NC(=O)C(C)(C)N)c2)c1", "note": "[Compound A]", "values": [{"measurement": "cell number below baseline", "setting": "[1]; 20 μM", "value": "induced cell death"}, {"measurement": "IC50", "setting": "[1]; Homo sapiens, panel of breast cancer cell lines, 2.5% FBS, read-out: IC50 of cell growth (2D)", "value": "~6", "unit": "µM"}, {"measurement": "2D growth", "setting": "[1]; panel of breast cancer cell lines, increasing doses", "value": "inhibited the 2D growth of all cell lines in a dose-dependent manner"}, {"measurement": "cell lines with upregulation of total HER3 and/or pHER3^Y1289 levels", "setting": "[2]; 24 hours", "value": "6/7"}, {"measurement": "time to recovery of pAKT and pS6 levels", "setting": "[2]; BT474, 6 μM", "value": "≤ 6", "unit": "hours"}, {"measurement": "total HER3, pHER3, pAKT time course", "setting": "[2]; BT474, 6 μM, 0-72 hours", "value": "time-dependent upregulation of total HER3, HER3 phosphorylated at Y1197 and Y1289"}, {"measurement": "HER3 RNA and protein time course", "setting": "[2]; BT-474 cells, 6 uM, inhibitor added every 24 hours", "value": "time-dependent upregulation of HER3 RNA and protein, beginning at 6 hours and increasing through 72 hours"}, {"measurement": "catalytic activity or autophosphorylation of HER2", "setting": "[2]; HER2-overexpressing cells", "value": "does not affect the catalytic activity or autophosphorylation of HER2"}, {"measurement": "P-Erk", "setting": "[2]; SKBR-3 and MDA-453 cells, like in BT-474", "value": "P-Erk is upregulated"}, {"measurement": "pAKT^S473/T308 and pS6^S240/244", "setting": "[2]; all cell lines, 0-20 μM", "value": "dose-dependent reduction in pAKT^S473/T308 and pS6^S240/244"}, {"measurement": "PI3K signaling as measured by pAKT^S473", "setting": "[2]; all cell lines, 24 hours, 0-20 μM", "value": "dose-dependent inhibition of PI3K signaling"}, {"measurement": "cyclin D1, pRB, p27^KIP1", "setting": "[2]; [4]", "value": "reduction in cyclin D1 and pRB and an increase in levels of the CDK inhibitor p27^KIP1"}, {"measurement": "total or cleaved PARP", "setting": "[2]; [4]", "value": "no change in levels of total or cleaved PARP"}, {"measurement": "HER2-overexpressing cell lines with modest upregulation of total HER2 and/or pHER2^Y1248", "setting": "[2]; upon inhibition of PI3K", "value": "5/6"}, {"measurement": "HER3 mRNA levels", "setting": "HER3 mRNA", "value": "increase in HER3 mRNA that appeared maximal at 6 hours and was maintained up to 48 hours"}, {"measurement": "rate of decay of the HER3 protein", "setting": "HER3 protein", "value": "not significantly altered"}, {"measurement": "p85-associated pTyr band", "setting": "[3]", "value": "dose-dependent increase of approximately 200-kDa main pTyr band"}]}
